These results are taken from US20220174981A1, “PROLINE TOLERANT TRIPEPTIDYL PEPTIDASES AND USES THEREOF” (DuPont Nutrition Biosciences APS, priority 2014, published 2022).

This experiment concerns proline tolerant tripeptidyl peptidase (TRI083). Put plainly: Hydrolysis of 33-mer gliadin peptide, LC-MS label-free quantification. To be noted: for Relative MS peak intensities: 24° C., pH 4.5. It counts as biochemical. As to the method:
The 33-mer of gliadin (alpha-2-gliadin) (aa56-88) H-[…]-OH (Zedira GmbH; D-64293 Darmstadt, Germany) C190H273N43O47 (MW=3911.46) (1 mg/ml; 0.26 mM) was incubated at 24° C. in the presence of proline tolerant tripeptidyl peptidase (0.01 mg/ml TRI083) in a total volume of 1000 ul buffer (pH=4.5) (the ratio substrate/enzyme 100:1, w/w). Aliquots (100 ul) of enzyme reaction were stopped with 20 ul 5% trifluoroacetic acid (TFA) after 0, 1, 3, 5, 10, 15 and 30 minutes, respectively. The samples were then transferred to new vials and analyzed on the LTQ Orbitrap mass spectrometer.
The LC-MS/MS data was manually annotated using GPMAW to calculate theoretical values of fragmentation.

Sequence of proline tolerant tripeptidyl peptidase (TRI083) (as listed by the source): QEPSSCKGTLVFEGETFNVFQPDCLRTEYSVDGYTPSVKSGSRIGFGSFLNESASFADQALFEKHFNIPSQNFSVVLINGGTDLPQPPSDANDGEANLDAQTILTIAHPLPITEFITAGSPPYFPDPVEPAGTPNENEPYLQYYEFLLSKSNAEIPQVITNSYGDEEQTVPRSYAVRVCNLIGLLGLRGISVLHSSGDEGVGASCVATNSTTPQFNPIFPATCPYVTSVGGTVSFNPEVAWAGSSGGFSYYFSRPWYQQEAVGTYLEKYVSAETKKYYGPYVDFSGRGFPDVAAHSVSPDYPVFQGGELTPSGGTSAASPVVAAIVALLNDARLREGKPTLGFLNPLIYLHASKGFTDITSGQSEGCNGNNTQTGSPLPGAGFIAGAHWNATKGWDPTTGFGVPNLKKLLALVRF

In the case of “H-LQLQPFPQPQLPYPQPQLPYPQPQLPYPQPQPF-OH [Alpha-2 gliadin, 33-mer of gliadin (alpha-2-gliadin) (aa56-88), substrate, reference compound]”, the “Relative MS peak intensities” value by setting is: (0 min with TRI083 0.01 mg/ml) 100; (1 min with TRI083 0.01 mg/ml) 10; (3 min with TRI083 0.01 mg/ml) 0; (5 min with TRI083 0.01 mg/ml) 0; (10 min with TRI083 0.01 mg/ml) 0; (15 min with TRI083 0.01 mg/ml) 0. In addition, where the note is “30 min with TRI083 0.01 mg/ml”, the “Relative MS peak intensities” value turned out to be 0. The “detectability of the intact peptide over time” value (TRI083 0.01 mg/ml, substrate/enzyme 100:1) is recorded as “not detectable after 3 min”. Further, under “proline in P3,P2,P1,P1′,P2′ and P3′ positions”, the “cleavage by proline tolerant tripeptidyl peptidase” value is “consecutively into tri-peptides irrespective of a high proline content”.

In the case of LPY, the “Relative MS peak intensities” value is, setting by setting: (0 min with TRI083 0.01 mg/ml) 5; (1 min with TRI083 0.01 mg/ml) 21; (3 min with TRI083 0.01 mg/ml) 46; (5 min with TRI083 0.01 mg/ml) 62; (10 min with TRI083 0.01 mg/ml) 90; (15 min with TRI083 0.01 mg/ml) 100. Further, the “Relative MS peak intensities” value (30 min with TRI083 0.01 mg/ml) amounted to 94.

In the case of LQL, the “Relative MS peak intensities” value runs as follows: (0 min with TRI083 0.01 mg/ml) 3; (1 min with TRI083 0.01 mg/ml) 91; (3 min with TRI083 0.01 mg/ml) 88; (5 min with TRI083 0.01 mg/ml) 94; (10 min with TRI083 0.01 mg/ml) 94; (15 min with TRI083 0.01 mg/ml) 100. In addition, under “30 min with TRI083 0.01 mg/ml”, the “Relative MS peak intensities” value worked out at 100.

Consider PQL, for which the “Relative MS peak intensities” value by setting is: (0 min with TRI083 0.01 mg/ml) 8; (1 min with TRI083 0.01 mg/ml) 21; (3 min with TRI083 0.01 mg/ml) 30; (5 min with TRI083 0.01 mg/ml) 32; (10 min with TRI083 0.01 mg/ml) 42; (15 min with TRI083 0.01 mg/ml) 58. Besides, the “Relative MS peak intensities” value (30 min with TRI083 0.01 mg/ml) was determined as 100.

Regarding PYP, the “Relative MS peak intensities” value is recorded as 4 (0 min with TRI083 0.01 mg/ml); 7 (1 min with TRI083 0.01 mg/ml); 12 (3 min with TRI083 0.01 mg/ml); 15 (5 min with TRI083 0.01 mg/ml); 28 (10 min with TRI083 0.01 mg/ml); 48 (15 min with TRI083 0.01 mg/ml). Besides, the “Relative MS peak intensities” value (30 min with TRI083 0.01 mg/ml) worked out at 101.

Turning to QPF, the “Relative MS peak intensities” value is 0 (0 min with TRI083 0.01 mg/ml); 4 (1 min with TRI083 0.01 mg/ml); 55 (3 min with TRI083 0.01 mg/ml); 7 (5 min with TRI083 0.01 mg/ml); 129 (10 min with TRI083 0.01 mg/ml); 26 (15 min with TRI083 0.01 mg/ml). The “Relative MS peak intensities” value (30 min with TRI083 0.01 mg/ml) stood at 100.

As for “YPQPQLPYPQPQLPYPQPQPF [intermediate product of alpha-2-gliadin hydrolysis]”, the “Relative MS peak intensities” value reads like this: (0 min with TRI083 0.01 mg/ml) 79; (1 min with TRI083 0.01 mg/ml) 100; (3 min with TRI083 0.01 mg/ml) 52; (5 min with TRI083 0.01 mg/ml) 23; (10 min with TRI083 0.01 mg/ml) 23; (15 min with TRI083 0.01 mg/ml) 23. In addition, the “Relative MS peak intensities” value (30 min with TRI083 0.01 mg/ml) worked out at 20.
